ChEMBL document CHEMBL1671648, “Molecular epidemiology of outbreak-related pseudomonas aeruginosa strains carrying the novel variant blaVIM-17 metallo-beta-lactamase gene” (2009)
≈ marks a conversion by molar mass, not a printed value.

What was measured:
Pseudomonas aeruginosa [1] = assay: Antibacterial activity against blaVIM-2-positive Pseudomonas aeruginosa by CLSI Etest method; format: functional
Pseudomonas aeruginosa [2] = assay: Antibacterial activity against blaVIM-2-positive Pseudomonas aeruginosa by CLSI broth microdilution method; format: functional

Compound	MIC (Pseudomonas aeruginosa [1])	MIC (Pseudomonas aeruginosa [2])
C[C@@H](O)[C@H]1C(=O)N2C(C(=O)O)=C(SCCNC=N)C[C@H]12 [IMIPENEM ANHYDROUS]	≥ 128 µg/mL	–
C[C@@H](O)[C@H]1C(=O)N2C(C(=O)O)=C(S[C@@H]3CN[C@H](C(=O)N(C)C)C3)[C@H](C)[C@H]12 [MEROPENEM]	–	32 µg/mL (≈ 83.4 µM)
